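Five concentrations, 48 hours, 96-well plates. GI50 is the concentration that inhibits growth by half. TGI: total growth inhibition.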
What was measured:
Experiment in all cases: DTP human tumour cell line panel, 48 h
[1] = test system: CAKI-1 renal
[2] = test system: NCI-H460 lung
[3] = test system: MDA-MB-468 breast
[4] = test system: NCI/ADR-RES ovarian
[5] = test system: CCRF-CEM leukemia
[6] = test system: MCF7 breast
[7] = test system: COLO 205 colon
[8] = test system: A498 renal
[9] = test system: OVCAR-5 ovarian
[10] = test system: HCT-116 colon
[11] = test system: LOX IMVI melanoma
[12] = test system: SK-MEL-5 melanoma
[13] = test system: OVCAR-3 ovarian
[14] = test system: M14 melanoma
[15] = test system: DU-145 prostate
[16] = test system: ACHN renal
[17] = test system: HCT-15 colon
[18] = test system: UACC-62 melanoma
[19] = test system: TK-10 renal
[20] = test system: NCI-H23 lung
[21] = test system: PC-3 prostate
[22] = test system: OVCAR-4 ovarian
[23] = test system: K-562 leukemia
[24] = test system: OVCAR-8 ovarian
[25] = test system: SK-MEL-28 melanoma
[26] = test system: KM12 colon
[27] = test system: SNB-19 CNS
[28] = test system: A549 NSCLC
[29] = test system: RXF 393 renal

SMILES: O=C1NC(=S)S/C1=C\c1cn(-c2ccccc2)nc1-c1ccc([N+](=O)[O-])cc1
- GI50 [1]: 3.04 µM
- TGI [1]: 13.5 µM
- GI50 [2]: 2.05 µM
- TGI [2]: 5.8 µM
- GI50 [3]: 1.9 µM
- TGI [3]: 10.8 µM
- GI50 [4]: 2.83 µM
- TGI [4]: 12.3 µM
- GI50 [5]: 2.33 µM
- TGI [5]: > 100 µM
- GI50 [6]: 2.74 µM
- TGI [6]: > 100 µM
- GI50 [7]: 3.5 µM
- TGI [7]: 17.6 µM
- GI50 [8]: 2.68 µM
- TGI [8]: 8.93 µM
- GI50 [9]: 5.53 µM
- TGI [9]: 26.7 µM
- GI50 [10]: 2.71 µM
- TGI [10]: 10.9 µM
- GI50 [11]: 3.22 µM
- TGI [11]: 12.8 µM
- GI50 [12]: 1.34 µM
- TGI [12]: 3.3 µM
- GI50 [13]: 2.95 µM
- TGI [13]: 12.4 µM
- GI50 [14]: 3.4 µM
- TGI [14]: 14.2 µM
- GI50 [15]: 3.63 µM
- TGI [15]: > 100 µM
- GI50 [16]: 3.04 µM
- TGI [16]: 13.4 µM
- GI50 [17]: 2.1 µM
- TGI [17]: 12.9 µM
- GI50 [18]: 1.23 µM
- TGI [18]: 3.18 µM
- GI50 [19]: 3.81 µM
- TGI [19]: > 100 µM
- GI50 [20]: 2.19 µM
- TGI [20]: 8.15 µM
- GI50 [21]: 2.71 µM
- TGI [21]: > 100 µM
- GI50 [22]: 2.6 µM
- TGI [22]: 16.4 µM
- GI50 [23]: 2.53 µM
- TGI [23]: > 100 µM
- GI50 [24]: 3.68 µM
- TGI [24]: 23.4 µM
- GI50 [25]: 2.68 µM
- TGI [25]: 9.82 µM
- GI50 [26]: 3.34 µM
- TGI [26]: 15.4 µM
- GI50 [27]: 3.46 µM
- TGI [27]: 23.2 µM
- GI50 [28]: 3.16 µM
- TGI [28]: 25.3 µM
- GI50 [29]: 3.2 µM
- TGI [29]: 8.61 µM

— PubChem BioAssay (NCI)
